Measurements from patent publication US10172835B2, “Anticancer agent composition” (J-Pharma Co., Ltd., priority 2014, dated 2019).

Experiments:
KO99L cells [1] = experiment: Cell death by flow cytometry after DAPI staining, KO99L cells; type: cell-based, murine; settings: 48 h
[2] = test system: KO99L-LUC cells (tPTEN−/− tumor); experiment: In vivo growth of subcutaneous KO99L-LUC tumors in nude mice (volume, bioluminescence, immunohistochemistry)
Method: All mice in each experimental group were subcutaneous injected with 99KOL-LUC T-lymphoma cells (200 μL; 5.0±0.1×10^6) stably expressing a reporter luciferase gene. After two days post injection, mice were intraperitoneally administered COMPOUND-JP (50 mg/kg/day/5 days a week) which had been prepared by dissolving drug powder and mixing into saline (NaCl 0.9%). Body weights and tumor volumes were measured every five days. Tumor volumes were calculated according to the mathematical formula: V=(L*W^2)/2 (L:Length; W:Width). To conduct the bioluminescence imaging, mice received an intraperitoneal injection (150 μL, 30 mg/mL) of D-luciferin (Caliper Life Science) and were anesthetized via inhaled isoflurane (2.0%). Bioluminescence signals were monitored using the Photon imager (Biospace Lab) equipped with a highly sensitive cooled CCD camera; all images were collected 10 min post D-luciferin injection. Data were analyzed using total photon flux emission (photons/second) focused on the regions of interest (ROI) enveloping the tumor region.
Sections (4 μm) in paraffin blocks of dissected tumors were labeled with a primary rabbit phospho-S6RP antibody (#4858, Cell Signaling Technology). A second, anti-rabbit antibody conjugated with peroxidase (HRP) (SignalStain®, #8114, Cell Signaling Technology) was added to the sections before revelation with diaminobenzidine (DAB) as recommended by the manufacturer. For necrosis evaluation, sections were stained with hematoxylin/eosin/safran (HES). The images were analyzed and necrosis areas quantified using the ImageJ software (NIH).

Jurkat T-ALL line = experiment: Cell viability of Jurkat human T-ALL cells; type: cell-based
Method: Two different assays were employed: i) In a 96-well plate format, cells (4.0±0.1×10^4 per well; 100 μL) were incubated with effectors (48 h, 37° C.; n=4 per experiment) and then WST-1 reagent (10 μL; Roche Diagnostics) added to each well of 96-well plates, incubated, and the formazan production was measured at 490 nm; and ii) cells (2.0±0.1×10^4 per well; 100 μL) were incubated with effectors (48 h, 37° C.; n=4 per experiment) and then bromodeoxyuridine reagent (10 μL/well; Roche Diagnostics) was added to each well and incubated (8 h, 37° C.). The cells were then fixed, denatured and incubated with anti-BrdU-conjugated with peroxidase (POD) antibody (100 μL/well). Colorimetric substrate (TMB: tetramethyl-benzidine; 100 μL/well) was added and BrdU incorporation quantified via optical density measurement (450 nm) which corresponds to DNA synthesis and proliferating cells.

[3] = test system: human Peripheral Blood Lymphocytes; experiment: Proliferative response of human PBL; type: cell-based; settings: 1.0-50.0 μM
[4] = test system: normal cord blood mononuclear cells; experiment: Viability of normal human cord blood mononuclear cells (DAPI, Facs); type: cell-based; settings: 5.0 and 10.0 μM, 48 h
KO99L cells [5] = experiment: Mitochondrial trans-membrane potential (TMRE staining), KO99L cells; type: cell-based, murine
Method: Mitochondrial trans-membrane potential (ψm) changes as a function of apoptotic events were measured using Tetra Methyl Rhodamine Ethyl Ester Perchlorate assay (TMRE; Molecular Probes). […] Thereafter, the cells were washed twice with PBS and then stained with DAPI (Sigma-Aldrich, 1.0 μg/mL) and examined via a MACSQuant Analyser (Miltenyi Biotech) and the data evaluated via FlowJo software.

caspase 3 [6] = experiment: Western blot of caspase 3 activation and PARP cleavage, KO99L cells; type: cell-based, murine; settings: 10.0 μM
Method: (§1) Cell extracts were prepared using a cell lysis buffer (50 mM HEPES, pH 7.4, 150 mM NaCl, 20 mM EDTA, 100 mM NaF, 10 mM Na3VO4, 0.5% nonyl phenoxypolyethoxylethanol (NP40) supplemented with a cocktail of protease inhibitors. After SDS-PAGE separation and transfer to nitrocellulose immunoblotting was performed using the following antibodies against: Akt (Cell Signaling Technologies, #9272), CHOP (#2895), cleaved caspase 3 (#9664), c-Myc (#9402), eIF2a (#9721), 4EBP1 (#9644), LC3A/B (#12741), PARP (#9542), pJnk (T183/Y185) (#9251), pSer235-236-S6RP (#4856), pSer473-Akt (#9271), pSer65-4EBP1 (#9451) and S6RP (#2217); Bax (Sigma-Aldrich, B8429); PUMA (Abcam, ab54288); Bak (Millipore, 06536); ATF4 (Santa Cruz Biotechnologies, sc200), GADD34 (sc8327), Hsp60 (sc-1722), Hsp90 (sc-13119) and XBP1 (sc-7160); ATF6 (Imgenex, IMG-273).

c-myc = experiment: Western blot of c-myc levels, KO99L cells; type: cell-based, murine; settings: COMPOUND-JP 10.0 μM 2.0-24 h; Velcade 8 nM 24 h; KU0063794 10.0 μM; MK-2206 10.0 μM; rapamycin 100 nM
Method: as §1

CHOP = experiment: Western blot of CHOP protein levels, KO99L cells; type: cell-based, murine
Method: as §1

[7] = test system: HT-29 cell derived from human large intestine cancer; experiment: Tumor growth in nude mouse inoculated subcutaneously with HT-29 cells; type: in vivo; settings: compared with untreated control group
Method: A HT-29 cell was inoculated subcutaneously into a mouse, and the transition of the size of the tumor lump was measured with time from the day on which the tumor has grown to a certain size, when each of COM-JP and 5-FU was used alone or in combination.

tPTEN−/− cells = experiment: Global protein synthesis (data not shown); type: cell-based, murine
caspase 3 [8] = experiment: Active caspase 3 staining with Red-DEVD-fmk, KO99L cells; type: cell-based, murine; settings: countered by QvD-OPH
Method: Cells (1.0±0.1×10^6 per well; 1.0 mL) were stimulated with different COMPOUND-JP doses with or without caspase3 inhibitor Qvd-OH (20 μM). Cells were then stained with caspase 3 inhibitor conjugated (RED-DEVD-FMK; Biovision) and incubated (1.0 h, 37° C. at 5% CO2). Cells were washed with Wash Buffer, then centrifuged (3000 rpm, 5.0 min) and stained with annexin V-FITC (10 μL/mL; Miltenyi Biotech) for 30 min and DAPI (1.0 μg/mL) added prior to examination via a MacsQuant Analyser.

Nc1cc(COc2c(Cl)cc(C[C@H](N)C(=O)O)cc2Cl)c2oc(-c3ccccc3)nc2c1 [COMPOUND-JP, O-(5-amino-2-phenylbenzoxazole-7-yl)methyl-3,5-dichloro-L-tyrosine]
decrease of COMPOUND-JP induced cell death upon EAA addition (KO99L cells [1]): 2.5 fold | decrease of mean tumor volume ([2]; 50 mg/kg/day, day 18, vs vehicle treated group, p<0.05): 45% | decrease of tumor luminescence ([2]; 50 mg/kg/day, p<0.05): 59% | necrotic response within the tumors ([2]; treated mice, untreated 4.6+/−0.5%): 10.5+/−0.5% | pS6RP staining in tumors ([2]; tumors from treated mice, 50 mg/kg/day): dramatically decreased | cell survival (Jurkat T-ALL line): alter cell survival | PBL cell proliferation [3]: did not significantly alter | normal cord blood mononuclear cells (living cells) [4]: did not significantly alter | Mitonchondrial Outer Membrane Permeabilization (MOMP) (KO99L cells [5]; 5.0 and 10.0 μM): cause MOMP | mitochondrial depolarization (KO99L cells [5]; highest concentration tested (20.0 μM), 48 hr): 70% | caspase 3 cleavage (caspase 3 [6]; 48 hr): essentially all cellular caspase 3 was processed | caspase 3 cleavage (caspase 3 [6]; four-to-six hour post addition): caspase 3 cleavage could be observed | PARP cleavage (caspase 3 [6]; 24 h): fully cleaved | c-myc protein level (c-myc): decreased | COMPOUND-JP mediated CHOP induction upon EAA supplementation (CHOP; 10 μM, complete medium plus EAA): prevented CHOP induction | CHOP expression, time course (CHOP; FIG. 5A, COMPOUND-JP 10.0 μM, L-Asp, Erw 2.5 units/ml, 2.0-24 h): rapidly induced CHOP expression | CHOP induction (CHOP; FIG. 5B, COMPOUND-JP 5.0 and 10.0 μM, L-Asp 2.5 units/ml, rapamycin 10.0 nM, MK-2206 10.0 μM, KU0063794 10.0 μM): profound and COMPOUND-JP dose dependent induction | increase of the tumor, single administration [7]: more significant decrease | interference with global protein synthesis (tPTEN−/− cells): did not observe any interference | cell-associated fluorescence via Red-DEVD-fmk (caspase 3 activation) (caspase 3 [8]): dose and time-dependent
